Measurements published in patent US12084472B2 (Ardelyx, Inc., priority 2015, dated 2024).

Biological target: T1, human TGR5 (Homo sapiens, UniProt Q8TDU6)
T1 construct: expressed in transfected cells; host or cells: HEK293
T1 sequence (Q8TDU6 1-330): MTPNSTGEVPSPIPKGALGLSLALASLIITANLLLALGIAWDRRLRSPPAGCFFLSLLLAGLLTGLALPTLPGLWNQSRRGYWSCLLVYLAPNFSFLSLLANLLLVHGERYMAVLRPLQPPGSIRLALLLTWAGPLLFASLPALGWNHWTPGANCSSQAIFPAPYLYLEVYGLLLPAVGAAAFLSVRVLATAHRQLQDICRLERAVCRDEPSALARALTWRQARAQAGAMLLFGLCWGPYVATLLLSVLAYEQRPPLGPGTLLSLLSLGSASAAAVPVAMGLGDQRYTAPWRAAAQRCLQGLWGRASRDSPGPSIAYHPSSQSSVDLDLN
Experiment: Cell-based TGR5 assay (cAMP generation, HTRF)
Conditions: HEK293 cells stably transfected with human TGR5; cAMP by HTRF; 30 minutes at 37° C.; read-out: pEC50 Human TGR5 (converted)
Procedure, shortened: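 Read-out was HTRF detection of cAMP, converted to concentration via a standard curve and fitted (3-parameter logistic) for pEC50 and maximal response. Agonist stimulation used HEK293 cells stably transfected with human TGR5, incubated 30 min at 37° C in IBMX-containing buffer at 0.05 nM to 10 μM compound.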

Row | SMILES | EC50
1 | COCCN(CCCC(C)c1ccc(Cl)c(CNC2(c3cnccc3-c3ccccc3OC3CC3)CC2)c1)C(=O)[C@@H](O)[C@@H](O)[C@H](O)[C@@H](O)CO (stereo partly drawn) [Compound I-282, (2S,3S,4R,5S)-N-(4-{4-chloro-3-[({1-[4-(2-cyclopropoxyphenyl)pyridin-3-yl]cyclopropyl}amino)methyl]phenyl}pentyl)-2,3,4,5,6-pentahydroxy-N-(2-methoxyethyl)hexanamide] | < 0.1 µM
2 | CC(CCCC(=O)N1CCN(CC(=O)NC[C@H](O)[C@@H](O)[C@H](O)[C@H](O)CO)CC1)c1ccc(Cl)c(CNC2(c3cnccc3-c3ccccc3OC3CC3)CC2)c1 (stereo partly drawn) [Compound I-321, 2-[4-(5-{4-chloro-3-[({1-[4-(2-cyclopropoxyphenyl)pyridin-3-yl]cyclopropyl}amino)methyl]phenyl}hexanoyl)piperazin-1-yl]-N-[(2S,3R,4R,5R)-2,3,4,5,6-pentahydroxyhexyl]acetamide] | < 0.1 µM
3 | CC(C)N(CCCCNC(=O)NC[C@H](O)[C@@H](O)[C@H](O)[C@H](O)CO)S(=O)(=O)c1cc(COC2(c3cnccc3-c3ccccc3OC3CC3)CC2)c(Cl)cc1F [Compound I-764, 4-chloro-5-((1-(4-(2-cyclopropoxyphenyl)pyridin-3-yl)cyclopropoxy)methyl)-2-fluoro-N-isopropyl-N-(4-(3-((2S,3R,4R,5R)-2,3,4,5,6-pentahydroxyhexyl)ureido)butyl) benzenesulfonamide] | < 0.1 µM
4 | O=C(CO)N(CCCCc1cc(Cl)c(COC2(c3cnccc3-c3ccccc3OC3CC3)CC2)cc1Cl)C[C@H](O)[C@@H](O)[C@H](O)[C@H](O)CO [Compound I-71, N-{4-[2,5-dichloro-4-({1-[4-(2-cyclopropoxyphenyl)pyridin-3-yl]cyclopropoxy}methyl)phenyl]butyl}-2-hydroxy-N-[(2S,3R,4R,5R)-2,3,4,5,6-pentahydroxyhexyl]acetamide] | < 0.1 µM
5 | O=C(O)CCN(C[C@H](O)[C@@H](O)[C@H](O)[C@H](O)CO)C(=O)CCCCc1cc(Cl)c(COC2(c3cnccc3-c3ccccc3OC3CC3)CC2)cc1Cl [Compound I-183, 3-{5-[2,5-dichloro-4-({1-[4-(2-cyclopropoxyphenyl)pyridin-3-yl]cyclopropoxy}methyl)phenyl]-N-[(2S,3R,4R,5R)-2,3,4,5,6-pentahydroxyhexyl]pentanamido}propanoic acid] | < 0.1 µM
6 | O=C(CN1CCC(NC(=O)NCCCCCSc2ccc(Cl)c(COC3(c4cnccc4-c4ccccc4OC4CC4)CC3)c2)CC1)NC[C@H](O)[C@@H](O)[C@H](O)[C@H](O)CO [Compound I-631, 2-(4-{[(5-{[4-chloro-3-({1-[4-(2-cyclopropoxyphenyl)pyridin-3-yl]cyclopropoxy}methyl)phenyl]sulfanyl}pentyl)carbamoyl]amino}piperidin-1-yl)-N-[(2S,3R,4R,5R)-2,3,4,5,6-pentahydroxyhexyl]acetamide] | < 0.1 µM
7 | CC(CCCC(=O)N(CCC(=O)N(C)C)C[C@H](O)[C@@H](O)[C@H](O)[C@H](O)CO)c1ccc(Cl)c(CNC2(c3cnccc3-c3ccccc3OC3CC3)CC2)c1 (stereo partly drawn) [Compound I-345, 5-{4-chloro-3-[({1-[4-(2-cyclopropoxyphenyl)pyridin-3-yl]cyclopropyl}amino)methyl]phenyl}-N-[2-(dimethylcarbamoyl)ethyl]-N-[(2S,3R,4R,5R)-2,3,4,5,6-pentahydroxyhexyl]hexanamide] | 0.126 to 1 µM
8 | CN(C[C@H](O)[C@@H](O)[C@H](O)[C@H](O)CO)C(=O)CCCCc1cc(Cl)c(CNC2(c3cnccc3-c3ccccc3OC3CC3)CC2)cc1Cl [Compound I-137, 5-{2,5-dichloro-4-[({1-[4-(2-cyclopropoxyphenyl)pyridin-3-yl]cyclopropyl}amino)methyl]phenyl}-N-methyl-N-[(2S,3R,4R,5R)-2,3,4,5,6-pentahydroxyhexyl]pentanamide] | < 0.1 µM
9 | O=C1CCCN1CCCN(CCCSc1ccc(Cl)c(CNC2(c3cnccc3-c3ccccc3OC3CC3)CC2)c1)C(=O)[C@@H](O)[C@@H](O)[C@H](O)[C@@H](O)CO [Compound I-529, (2S,3S,4R,5S)-N-[3-({4-chloro-3-[({1-[4-(2-cyclopropoxyphenyl)pyridin-3-yl]cyclopropyl}amino)methyl]phenyl}sulfanyl)propyl]-2,3,4,5,6-pentahydroxy-N-[3-(2-oxopyrrolidin-1-yl)propyl]hexanamide] | 0.126 to 1 µM
10 | Cc1ccc(S(=O)(=O)N(C)CCCCNC(=O)NC[C@H](O)[C@@H](O)[C@H](O)[C@H](O)CO)cc1CNC1(c2cnccc2-c2ccccc2OC2CC2)CC1 [Compound I-477, 1-(4-{N-methyl3-[({1-[4-(2-cyclopropoxyphenyl)pyridin-3-yl]cyclopropyl}amino)methyl]-4-methylbenzenesulfonamido}butyl)-3-[(2S,3R,4R,5R)-2,3,4,5,6-pentahydroxyhexyl]urea] | < 0.1 µM

Next, values leading:

Row | EC50 | SMILES
11 | < 0.1 µM | CN(CCCCc1cc(Cl)c(COC2(c3cnccc3-c3ccccc3OC3CC3)CC2)cc1Cl)C(=O)[C@@H](O)[C@@H](O)[C@H](O)[C@@H](O)CN1CCOCC1 (stereo in doubt) [Compound I-189, (2S,3S,4R,5S)-N-{4-[2,5-dichloro-4-({1-[4-(2-cyclopropoxyphenyl)pyridin-3-yl]cyclopropoxy}methyl)phenyl]butyl}-2,3,4,5-tetrahydroxy-N-methyl-6-(morpholin-4-yl)hexanamide]
12 | < 0.1 µM | O=C(O)CCCCc1cc(Cl)c(COC2(c3cnccc3-c3ccccc3OC3CC3)CC2)cc1Cl [Compound I-157, 5-[2,5-dichloro-4-({1-[4-(2-cyclopropoxyphenyl)pyridin-3-yl]cyclopropoxy}methyl)phenyl]pentanoic acid]
13 | < 0.1 µM | O=C(COC1CCN(S(=O)(=O)c2ccc(Cl)c(COC3(c4cnccc4-c4ccccc4OC4CC4)CC3)c2)CC1)NC[C@H](O)[C@@H](O)[C@H](O)[C@H](O)CO [Compound I-444, 2-({1-[4-chloro-3-({1-[4-(2-cyclopropoxyphenyl)pyridin-3-yl]cyclopropoxy}methyl)benzenesulfonyl]piperidin-4-yl}oxy)-N-[(2S,3R,4R,5R)-2,3,4,5,6-pentahydroxyhexyl]acetamide]
14 | 0.126 to 1 µM | CSc1cnc(CNC2(c3cnccc3-c3ccccc3OC3CC3)CC2)c(C)c1 [Compound I-39, 1-[4-(2-cyclopropoxyphenyl)pyridin-3-yl]-N-{[3-methyl-5-(methylsulfanyl)pyridin-2-yl]methyl}cyclopropan-1-amine]
15 | < 0.1 µM | Clc1ccc(Cl)c(COC2(c3cnccc3-c3ccccc3OC3CC3)CCOC2)c1 (stereo not shown) [Compound I-743, 4-(2-cyclopropoxyphenyl)-3-(3-((2,5-dichlorobenzyl)oxy)tetrahydrofuran-3-yl)pyridine]
16 | < 0.1 µM | CC(CCCC(=O)N(C)C[C@H](O)[C@@H](O)[C@H](O)[C@H](O)CO)c1cc(Cl)c(COC2(c3cnccc3-c3ccccc3OC3CC3)CC2)cc1Cl (stereo partly drawn) [Compound I-162, 5-[2,5-dichloro-4-({1-[4-(2-cyclopropoxyphenyl)pyridin-3-yl]cyclopropoxy}methyl)phenyl]-N-methyl-N-[(2S,3R,4R,5R)-2,3,4,5,6-pentahydroxyhexyl]hexanamide]
17 | < 0.1 µM | O=C(CCCCc1cc(Cl)c(COC2(c3cnccc3-c3ccccc3OC3CC3)CC2)cc1Cl)NC[C@H](O)[C@@H](O)[C@H](O)[C@H](O)CO [Compound I-135, 5-[2,5-dichloro-4-({1-[4-(2-cyclopropoxyphenyl)pyridin-3-yl]cyclopropoxy}methyl)phenyl]-N-[(2S,3R,4R,5R)-2,3,4,5,6-pentahydroxyhexyl]pentanamide]
18 | 0.126 to 1 µM | O=C(NC[C@H](O)[C@@H](O)[C@H](O)[C@H](O)CO)NC1CN(S(=O)(=O)c2ccc(Cl)c(COC3(c4cnccc4-c4ccccc4OC4CC4)CC3)c2)C1 [Compound I-427, 1-{1-[4-chloro-3-({1-[4-(2-cyclopropoxyphenyl)pyridin-3-yl]cyclopropoxy}methyl)benzenesulfonyl]azetidin-3-yl}-3-[(2S,3R,4R,5R)-2,3,4,5,6-pentahydroxyhexyl]urea]
19 | 0.126 to 1 µM | C[C@@H](CCCCN)c1ccc(Cl)c(CNC2(c3cnccc3-c3ccccc3OC3CC3)CC2)c1 (single isomer, unassigned) [Compound I-243]
20 | 0.126 to 1 µM | O=C(COC1CN(S(=O)(=O)c2ccc(Cl)c(COC3(c4cnccc4-c4ccccc4OC4CC4)CC3)c2)C1)NC[C@H](O)[C@@H](O)[C@H](O)[C@H](O)CO [Compound I-454, 2-({1-[4-chloro-3-({1-[4-(2-cyclopropoxyphenyl)pyridin-3-yl]cyclopropoxy}methyl)benzenesulfonyl]azetidin-3-yl}oxy)-N-[(2S,3R,4R,5R)-2,3,4,5,6-pentahydroxyhexyl]acetamide]
21 | < 0.1 µM | O=C(CC1CN(S(=O)(=O)c2ccc(Cl)c(COC3(c4cnccc4-c4ccccc4OC4CC4)CC3)c2)C1)NC[C@H](O)[C@@H](O)[C@H](O)[C@H](O)CO [Compound I-438, 2-{1-[4-chloro-3-({1-[4-(2-cyclopropoxyphenyl)pyridin-3-yl]cyclopropoxy}methyl)benzenesulfonyl]azetidin-3-yl}-N-[(2S,3R,4R,5R)-2,3,4,5,6-pentahydroxyhexyl]acetamide]
22 | 0.126 to 1 µM | O=C(NCCCCCOc1ccc(Cl)c(COC2(c3cnccc3-c3ccccc3OC3CC3)CC2)c1)NC[C@H](O)[C@@H](O)[C@H](O)[C@H](O)CO [Compound I-726, 1-(5-(4-chloro-3-((1-(4-(2-cyclopropoxyphenyl)pyridin-3-yl)cyclopropoxy)methyl)phenoxy)pentyl)-3-((2S,3R,4R,5R)-2,3,4,5,6-pentahydroxyhexyl)urea]
